Assay results taken from patent EP2157088A1, “INDICYANINE DYES AND THE DERIVATIVES THEREOF FOR ANALYSING BIOLOGICAL MICROMOLECULES” (UCHREZHDENIE ROSSIISKOI AKADEMII NAUK INSTITUT …, priority 2007, dated 2008).

Experiments:
[1] = format: physicochemical
Excerpt: Subject to substituent at the heterocyclic moiety, dyes of formulae (A) and (B) proposed are distinguished by a spectral range of excitation and fluorescence, by the total electrical charge, and water solubility (Table 1).

[2] = Quantum efficiency of fluorescence, measured versus a reference dye; format: physicochemical
Procedure: For all indodicarbocyanine dyes (I) (A1) - (A30) and (B1) - (B7) of the invention, there are determined the quantum efficiency of fluorescence in methanol and in aqueous phosphate buffered saline (Table 1, Fig. 3). The measurements are performed versus dyes of formula (I) (R1= -CH3, R2= R6= -SO3^-; R3= -(CH2)5COOH, R4= -C2H5, R5= -H) whose quantum efficiency of fluorescence in PBS is 0.27 (Mader O., K. Reider, H.-J. Egelhaaaf, R, Fischer, R. Brock, Structure Properties of Pentamethine Indocyanine Dyes: Identification of New Dyes for Life Science Applications. Bioconjugate Chem, 2004, vol. 15, pp. 70-78). In methanol, dyes (A10, A22, A25, A29, A30) have the upper-range of quantum efficiency of fluorescence (Φ ∼ 0.3), but in PBS, dyes (A10, A22, A25, A29, A30) have the maximal Φ -value.

[3] = Absorption and fluorescence maxima of the dyes; format: physicochemical
Excerpt: An insertion of methyl group at 5- and 7-positions of indolenyne cycle produces a bathochromic shift in the absorption and fluorescent spectra. As to the rest sulfur containing dyes, the spectral characteristics thereof appear to be in the same range (between about λmax 648 nm and λem 669 nm) (Fig. 1),

[4] = Molar extinction coefficient in methanol and PBS; format: physicochemical; set-up: ε·10^-5: unit not given here
Procedure: For all indodicarbocyanine dyes (I) (A1) - (A30) and (B1) - (B7) of the invention, there are determined the molar extinction coefficients in methanol and in aqueous phosphate buffered saline (PBS) (10 mM potassium phosphate buffer, sodium chloride concentration is 0.9%, pH 7.4). In methanol, indodicarbocyanine (A1, A8, A10-A12, A17, A23) has the upper-range of molar extinction coefficient (ε >[…]). In aqueous phosphate buffered saline (PBS), dyes (A10, A23, A30) have the maximal ε-value (Fig. 2).

[5] = Relative efficiency of fluorescence / absolute sensitivity of label, normalized to dye A30 in PBS; format: physicochemical; details: for Sensitivity of record 635/ 670: excitation 635 nm, record 670 nm; for Sensitivity of record 655/ 690: excitation 655 nm, record 690 nm; for Sensitivity of record max/ max: excitation and record in absorption and fluorescence maxima, ε*Φ normalized to A30 in PBS
Excerpt: The data obtained were as follows: • on excitation and record in absorption and fluorescence maxima, the relative efficiency of fluorescence exceeds 0.80 for dyes (A10), (A22), (A23), (A25), and (A30) in methanol and for dyes (A22), (A25), and (A30) in PBS (Table 1, Fig. 4), whereas for dyes of formula (I) (R1 = -CH3, R2= R6= -SO3^-; R3= -(CH2)5COOH, R4= -C2H5; R5= -H) the values are 0.69 in methanol and 0.67 in PBS; • on excitation at wavelength 655 nm and record at 690 nm, the relative efficiency of fluorescence exceeds 0.25 for dyes (A25) and (A30) in methanol and is higher than 0.18 for dyes (A24) and (A30) in PBS (Table 1, Fig. 5), whereas for dyes of formula (I) (R1 = -CH3, R2 = R6= -SO3^-; R3= -(CH2)5COOH, R4= -C2H5; R5= -H) the values are 0.18 in methanol and 0.11 in PBS; • on excitation at wavelength 635 nm and record at 670 nm, the relative efficiency of fluorescence exceeds 0.50 for dyes (A1), (A11), (A23) in methanol and is higher than 0.45 for dyes (A22), (A25), and (A30) in PBS (Table 1, Fig. 6), whereas for dyes of formula (I) (R1= -CH3, R2= R6= -SO3^-; R3= -(CH2)5COOH, R4= -C2H5; R5= -H) the values are 0.44 in methanol and 0.38 in PBS.
Term sensitivity of fluorescent analysis is defined by the absolute sensitivity of label that may be represented as the product of molar extinction coefficient by quantum efficiency of fluorescence (ε*Φ). Thus, there are determined the absolute sensitivity of indodicarbocyanines (A1-A30, B1-B7) in appropriate absorption and fluorescence maxima in methanol and in aqueous phosphate buffered saline. The values are normalized to the maximal value obtained for dye (A30) in PBS (Table 1). In methanol, dyes (A10, A22, A23, A25, A30) have the upper-range of absolute sensitivity, but in PBS, dyes (A10, A22, A25, A29, A30) have the maximal values of sensitivity (Fig. 4).
To determine the most appropriate dyes for instrument setting, there are measured the relative efficiency of fluorescence of dyes at wavelength of excitation and record of the instrument (655 nm. / 690 nm). The maximal values appear to be specific to dyes (A25) and (A30) in methanol, and to dyes (A19, A22, A25, A29, A30) in PBS (Table 1, Fig. 5).
There are also measured the relative efficiency of fluorescence at wavelength of excitation and record of the instrument (635 nm / 670 nm). The maximal values appear to be specific to dyes (A1, A10, A11, A23) in methanol, and to dyes (A10, A22, A25, A29, A30) in PBS (Table 1, Fig. 6).

Row | Molecule | water solubility [1] | Φ (quantum efficiency of fluorescence) ([2]; MeOH) | λmax^abs ([3]; MeOH) | λmax^em ([3]; MeOH) | λmax^abs ([3]; PBS) | λmax^em ([3]; PBS) | ε·10^-5 ([4]; MeOH) | ε·10^-5 ([4]; PBS (10 mM potassium phosphate buffer, 0.9% sodium chloride, pH 7.4)) | Φ (quantum efficiency of fluorescence) ([2]; PBS) | Sensitivity of record 635/ 670 ([5]; MeOH) | Sensitivity of record 655/ 690 ([5]; MeOH) | Sensitivity of record max/ max ([5]; MeOH) | Sensitivity of record 635/ 670 ([5]; PBS) | Sensitivity of record 655/ 690 ([5]; PBS) | Sensitivity of record max/ max ([5]; PBS)
1 | CC1(C)C(=CC=CC=CC2=[N+](CCCCS(=O)(=O)[O-])c3ccc(CCC(=O)O)cc3C2(C)C)N(CCCCS(=O)(=O)[O-])c2ccc(S(=O)(=O)[O-])cc21.[Na+].[Na+] [B7, N,N'-disulfobutyl-5-carboxyethyl-5'-sulfo-3,3,3',3'-tetramethylindodicarbocyanine, disodium salt] | very good water solubility | – | – | – | – | – | – | – | – | – | – | – | – | – | –
2 | 5,5'-disulfo-N,N'-di(4-sulfobutyl)-3-(4-carboxybutyl)-3,3',3'-trimethylindodicarbocyanine, trisodium salt [A30] | very good water solubility | ~0.3 | – | – | – | – | – | – | – | – | – | – | – | – | –
3 | CCN1/C(=C/C=C/C=C/C2=[N+](CC)c3ccccc3C2(C)C)C(C)(CCCCC(=O)O)c2cc(S(=O)(=O)[O-])ccc21 (centres unmarked) [A9, N,N'-diethyl-3-(4-carboxybutyl)-5-sulfo-3,3',3'-trimethylindodicarbocyanine] | – | 0.23 | 648 nm | 663 nm | 646 nm | 659 nm | 2.07±0.03 | 1.91±0.02 | 0.15 | 0.424 | 0.124 | 0.627 | 0.229 | 0.052 | 0.385
